Test results reported in US6284461A, “Use of inhibitors in reporter assays” (priority 1998, dated 2001).
Entries after “also recorded” stand apart in the source; their conditions may differ.

Key:
[1] = molecular target: T1, cytosolic beta-lactamase reporter enzyme (Escherichia coli, UniProt P62593); experiment: Inhibition of cytosolic beta-lactamase reporter activity in live Jurkat cells, CMV promoter (Example II); assay type: cell-based; conditions: 300 μM inhibitor, one hour at 37° C.
T1 construct: CCF2/AM read-out
T1 sequence (P62593 24-286 limits assumed): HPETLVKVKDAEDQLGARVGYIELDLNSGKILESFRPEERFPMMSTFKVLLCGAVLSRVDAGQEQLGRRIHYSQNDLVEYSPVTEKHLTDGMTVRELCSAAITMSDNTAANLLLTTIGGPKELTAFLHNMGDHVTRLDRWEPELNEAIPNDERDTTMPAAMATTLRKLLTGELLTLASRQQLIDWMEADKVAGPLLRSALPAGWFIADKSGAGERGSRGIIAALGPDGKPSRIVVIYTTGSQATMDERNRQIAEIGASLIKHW
Procedure: (§1) One day before the assay, CHO cells (an adherent cell line) expressing a cytosolic beta-lactamase reporter gene (WO 96/30540 to Tsien et al., published Oct. 3, 1996)) under control of a G-protein coupled receptor (GPCR) were plated in six clear-bottom 96-well microtiter plates at 75% confluency. The cells in half of the wells were stimulated overnight with agonist to the GPCR. Thus, these cells expressed high levels of the reporter enzyme encoded by the reporter gene. The other half of the cells were maintained without agonist in media having dialyzed fetal calf serum. This population is representative of cells with only background levels of beta-lactamase expression. […] After thirty minutes of incubation, the fluorescence from the wells was determined using a microtiter plate fluorimeter with excitation at 395/20nm and emission at 460/40nm and 530/30nm. The raw fluorescence emission values were corrected for the signal from wells without cells. […]
Jurkat cells (a non-adherent cell line) expressing a cytosolic beta-lactamase reporter enzyme (WO 96/30540 to Tsien et al., published Oct. 3, 1996) under the control of the constitutively active cytomegalovirus early promoter (CMV promoter) were incubated with three inhibitors: clavulanic acid, imipenem and HOB-1-70. […] Cells were treated for one hour at 37° C., after which beta-lactamase reporter activity was assessed as in Example I (FIG. 2).

[2] = tested on: background beta-lactamase activity (cytosolic); experiment: Background beta-lactamase activity in CHO reporter cells after blocking enzyme synthesis (Example I); assay type: cell-based; conditions: 40 μg/ml cycloheximide, low and high expressing CHO cells, even after 5 hours
Procedure: as §1, with “expression. These unstimulated cells expressed the reporter enzyme at levels lower than in the stimulated cells. After sixteen hours, the media was removed, the stimulated cells and the unstimulated cells were washed once by replacing the culture media by aspiration with an equal volume of phosphate buffered saline and then treated with 40 μg/ml cycloheximide in RPMI medium 1640 with 0.1% bovine serum albumin (BSA).” for “expression.”

[3] = tested on: cytosolic beta-lactamase activity; experiment: Background versus de novo beta-lactamase activity in CHO GPCR reporter cells after inhibitor pretreatment (Example V); assay type: cell-based; conditions: 300 μM clavulanic acid sixteen hours, washed, unstimulated, three hours
Procedure: as §1, with “expression. These unstimulated cells expressed the reporter enzyme at levels lower than in the stimulated cells. After sixteen hours, the media was removed, the stimulated cells and the unstimulated cells were washed once by replacing the culture media by […] (BSA). Because CHO cells are adherent, aspiration is the preferred method of removing culture media, which is then replaced with wash media or wash solution.” for “expression.”

[4] = molecular target: T1, cytosolic beta-lactamase reporter enzyme; experiment: Irreversibility of intracellular beta-lactamase inhibition in CHO GPCR reporter cells (Example IV); assay type: cell-based; conditions: washed
[5] = tested on: beta-lactamase; conditions: cited from earlier work
[6] = molecular target: T2, cytosolic beta-lactamase (Escherichia coli, UniProt P62593); experiment: Inhibitor added together with CCF2/AM in CHO nuclear receptor beta-lactamase reporter cells (Example IX); assay type: cell-based
T2 construct: CCF2/AM read-out
T2 sequence (P62593 24-286 limits assumed): as above

[7] = tested on: cytosolic beta-lactamase reporter; experiment: Wash-out of inhibitor from Jurkat C2 cells (M1 receptor, NF-AT beta-lactamase reporter) (Example III); assay type: cell-based
Procedure: as §1
These studies used a Jurkat cell clone (referred to as "C2 cells" ) containing the M1 -receptor and a cytosolic beta-lactamase reporter gene (WO 96/30540 to Tsien et al., published Oct. 3, 1996)) regulated by a NF-AT response element. […] Higher beta-lactamase activity was detected in the cells as the time after the inhibitor was washed out of the cells increased.

[8] = molecular target: T1, cytosolic beta-lactamase reporter enzyme; experiment: Agonist titration in CHO GPCR reporter cells with or without inhibitor pretreatment (Example VI); assay type: cell-based

Row | Structure (SMILES) | reduction of cytosolic beta-lactamase reporter activity [1] | ratio values (460/40nm over 530/30nm emission) [2] | background beta-lactamase reporter activity after pretreatment [3] | persistence of inhibition of intracellular beta-lactamase reporter enzyme ([4]; 300 μM clavulanic acid pretreatment, cycloheximide) | ratio values (460/40nm over 530/30nm emission) ([4]; 300 μM clavulanic acid sixteen hours, 40 μg/ml cycloheximide, low and high expressing cells, even after five hours) | molecules of inhibitor hydrolyzed on average before the beta-lactamase is irreversibly inactivated ([5]; beta-lactamase used in the cell based assays, source not given) | reversibility of beta-lactamase inhibition ([5]; literature (Bulychev et al. 1995; Knowles 1985)) | ratio of fluorescence from stimulated cells over unstimulated cells ([6]; 16.7 microμ clavulanic acid present) [fold] | improvement in signal-to-noise ratio ([6]; 16.7 microμ clavulanic acid versus absence of inhibitor) | background (unstimulated) ratio levels ([6]; CHO nuclear receptor reporter cells, 16.7 microμ clavulanic acid present during CCF2/AM loading) | beta-lactamase activity in stimulated cells ([6]; agonist-stimulated CHO cells, 16.7 microμ clavulanic acid present during CCF2/AM loading) | beta-lactamase activity, no-wash control ([7]; 100 microM clavulanic acid for sixteen hours, inhibitor present throughout, with or without 100 microM carbacol) | de novo beta-lactamase activity after wash-out of inhibitor ([7]; 100 microM clavulanic acid sixteen hours, washed once, 0-3 hours after wash, then 100 microM carbacol for three hours) | background beta-lactamase activity in agonist assay ([8]; CHO cells pretreated with 300 μM clavulanic acid sixteen hours, washed, three hours agonist) | signal-to-noise ratio of agonist assay ([8]; cells pretreated with clavulanic acid versus untreated)
1 | C[C@@H](O)[C@H]1C(=O)N2C(C(=O)O)=C(SCCN=CN)C[C@H]12 [imipenem] | did not have a similar effect |  |  |  |  |  |  |  |  |  |  |  |  |  | 
2 | C[C@@H]1C[C@@H]([C@H](O)CC2CC(=O)NC(=O)C2)C(=O)[C@@H](C)C1 [cycloheximide] |  | above 0.2 |  |  |  |  |  |  |  |  |  |  |  |  | 
3 | O=C(O)[C@H]1/C(=C/CO)O[C@@H]2CC(=O)N21 [clavulanic acid] | reduced the reduced beta-lactamase activity in these cells to levels found in cells that do not have the reporter; also recorded: essentially reduced reporter beta-lactamase activity to values found for a naive Jurkat population |  | effective means of lowering the background beta-lactamase reporter activity; also recorded: readily inhibited | irreversibly inhibited; also recorded: remains inhibited for at least five hours | about 0.2 | about 100 molecules | irreversible | 32 | almost a three-fold improvement | 0.090±0.015 | did not change significantly | beta-lactamase activity, both residual and synthesized de novo, was reduced | Stimulation of cells, even immediately after the wash, results in de novo synthesis of beta-lactamase that can be detected | much lower | the signal-to-noise ratio was improved
